Assay results taken from PubChem BioAssay AID383 (SGCOxCompounds, 2006).

molecular target: Dual specificity protein kinase CLK3 (Homo sapiens) (UniProt P49761); test: CLK3 binders by thermal stabilization, biophysical, thermal shift, recombinant protein (AID 383); conditions: at 10 µM, protein 1.5 µM, buffer 10 mM HEPES, pH 7.5, NaCl 150 mM, with 50 µM L-Arg/L-Glu (1:1), hits give high values
Sequence (P49761 whole entry, looked up): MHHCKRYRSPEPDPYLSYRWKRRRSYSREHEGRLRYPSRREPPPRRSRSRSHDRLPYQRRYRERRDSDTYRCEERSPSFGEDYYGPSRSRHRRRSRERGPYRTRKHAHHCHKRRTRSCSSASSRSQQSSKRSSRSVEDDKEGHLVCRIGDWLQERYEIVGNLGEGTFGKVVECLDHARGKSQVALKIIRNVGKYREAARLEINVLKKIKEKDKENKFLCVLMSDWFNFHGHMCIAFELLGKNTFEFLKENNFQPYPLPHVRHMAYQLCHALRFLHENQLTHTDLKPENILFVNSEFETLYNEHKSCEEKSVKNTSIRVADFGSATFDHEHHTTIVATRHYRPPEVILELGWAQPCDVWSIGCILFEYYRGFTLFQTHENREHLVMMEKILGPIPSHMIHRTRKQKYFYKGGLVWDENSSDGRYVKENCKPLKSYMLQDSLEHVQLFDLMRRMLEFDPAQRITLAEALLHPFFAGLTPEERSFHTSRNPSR

Row | Compound | Tm shift [Celsius]
1 | Cc1[nH]c(/C=C2\C(=O)Nc3ccc(S(=O)(=O)N(C)c4cccc(Cl)c4)cc32)c(C)c1C(=O)N1CCN(C)CC1 | 3.7
2 | O=C(c1ccc(Nc2nccc(-c3cc4ccccc4s3)n2)cc1)N1CCC(N2CCCC2)CC1 | 6.3
3 | Cc1cc(Nc2nc(-c3ccccc3)nc3ccccc23)n[nH]1 | 4.1
4 | O=C1NC(=O)C(c2c[nH]c3ccccc23)=C1c1c[nH]c2ccccc12 | 3.2
5 | O=Nc1c(-c2c(O)[nH]c3ccc(S(O)(O)O)cc23)[nH]c2ccccc12 | 4.7
6 | N#C/C(=C1\Nc2ccccc2S1)c1ccnc(NCCc2cccnc2)n1 | 4.9
7 | OCC(O)CCO/N=C1/C(c2c(O)[nH]c3ccccc23)=Nc2ccccc21 (stereo not drawn) | 4
8 | O=Nc1c(-c2c(O)[nH]c3ccc(I)cc23)[nH]c2ccccc12 | 4.5

same assay, conditions: at 10 µM, protein 1.7 µM, buffer 10 mM HEPES, pH 7.5, NaCl 150 mM, with 50 µM L-Arg/L-Glu (1:1), hits give high values

Row | Compound | Tm shift [Celsius]
9 | Nc1nc(Nc2cccc(Cl)c2)sc1C(=O)c1ccc(F)cc1 | 3.4
10 | COc1ccc(Nc2nc(N)c(C(=O)c3ccc(OC)cc3)s2)cc1 | 4.3
11 | COc1ccc(Nc2nc(N)c(C(=O)c3ccc(Cl)cc3)s2)cc1 | 3.7
12 | Nc1nc(Nc2ccc(F)cc2)sc1C(=O)c1ccccc1 | 3.2

same assay, conditions: at 10 µM, protein 1.8 µM, buffer 10 mM HEPES, pH 7.5, NaCl 150 mM, with 50 µM L-Arg/L-Glu (1:1), hits give high values

Row | Compound | Tm shift [Celsius]
13 | CC(C)n1cnc2c(Nc3cccc(Cl)c3)nc(NCCO)nc21 | 4.6
14 | NC1=N/C(=C2/CCNC(=O)c3[nH]c(Br)cc32)C(=O)N1 | 7.2
15 | NC(=O)c1ccc(-c2nc(-c3ccc4c(c3)OCCO4)c(-c3ccccn3)[nH]2)cc1 | 4.8
16 | Nc1ncnc2c1c(I)cn2[C@@H]1O[C@H](CO)C(O)C1O (stereo partly drawn) | 7.5
17 | O=c1cc(-c2ccc(O)cc2)oc2cc(O)cc(O)c12 | 3.1
18 | Cn1cc(/C=C2\C(=O)Nc3ccc(S(N)(=O)=O)cc32)c2ccccc21 | 3.2
19 | CC1N=C2SC=CN2C(=O)C1CCN1CCC(=C(c2ccccc2)c2ccc(F)cc2)CC1 (stereo not drawn) | 3.8
20 | Cc1c2ccncc2c(C)c2c1[nH]c1ccccc12 | 4.2
21 | O=Nc1c(-c2c(O)[nH]c3ccccc23)[nH]c2ccccc12 | 4.6
22 | CN(C)CCCn1cc(C2=C(c3c[nH]c4ccccc34)C(=O)NC2=O)c2ccccc21 | 3.5
23 | CN(C)S(O)(O)c1ccc2c(c1)/C(=C/c1cc3c([nH]1)CCCC3)C(=O)N2 | 4.1
24 | COc1cc(/C=C/C(=O)CC(=O)/C=C/c2ccc(O)c(OC)c2)ccc1O | 5.3

same assay, conditions: at 10 µM, protein 2 µM, buffer 10 mM HEPES, NaCl 150 mM, with 50 mM Arg/Glu, hits give high values

Row | Compound | Tm shift [Celsius]
25 | CC(=O)c1cccc(-c2cnc3ccc(N[C@H](CO)C(C)C)nn23)c1 | 3.77
26 | CC(C)n1cnc2c(Nc3cccc(Cl)c3)nc(NCCO)nc21 | 3.76
27 | NC1=N/C(=C2/CCNC(=O)c3[nH]c(Br)cc32)C(=O)N1 | 8.87
28 | CC(=O)Nc1cccc(-c2cnc3ccc(N[C@H](CO)C(C)C)nn23)c1 | 4.32
29 | Nc1ncnc2c1c(I)cn2[C@@H]1O[C@H](CO)C(O)C1O (stereo partly drawn) | 7.25
30 | CC(C)[C@@H](CO)Nc1ccc2ncc(-c3ccc(C#N)cc3)n2n1 | 4.58
31 | CC(C)C(CO)Nc1nc(Nc2cccc(Cl)c2)c2ncn(C(C)C)c2n1 (stereo not drawn) | 3.88
32 | CCC(CO)Nc1ccc2ncc(-c3ccc(O)cc3)n2n1 (stereo not drawn) | 4.43
33 | NC1=N/C(=C2\CCNC(=O)c3[nH]ccc32)C(=O)N1 | 4.35
34 | N=C(N)SCCCn1cc(C2=C(c3c[nH]c4ccccc34)C(=O)NC2=O)c2ccccc21 | 3.37
35 | Nc1nc(Nc2ccc(S(N)(=O)=O)cc2)nn1C(=S)Nc1c(F)cccc1F | 15.1
36 | CCC(CO)Nc1ccc2ncc(-c3ccc(C(=O)O)cc3)n2n1 (stereo not drawn) | 3.99
37 | O=c1c(O)c(-c2ccc(O)c(O)c2)oc2cc(O)cc(O)c12 | 4.2

same assay, conditions: at 10 µM, protein 2 µM, buffer 10 mM HEPES, pH 7.5, NaCl 150 mM, hits give high values

Row | Compound | Tm shift [Celsius]
38 | CCC(CO)Nc1ccc2ncc(-c3ccc(F)c(Cl)c3)n2n1 (stereo not drawn) | 3.6
39 | Clc1cccc(Nc2ccn3ncc(-c4ccc5c(c4)OCO5)c3n2)c1 | 6.07
40 | CCC(CO)Nc1ccc2ncc(-c3cccc(C(C)=O)c3)n2n1 (stereo not drawn) | 3.42
41 | CCC(CO)Nc1ccc2ncc(-c3ccc(OC)nc3)n2n1 (stereo not drawn) | 4.48
42 | N#Cc1ccc(-c2cnc3ccc(NC4CCOCC4)nn23)cc1 | 3.76
43 | CCC(CO)Nc1ccc2ncc(-c3cccc(OC(F)(F)F)c3)n2n1 (stereo not drawn) | 3.66
44 | CC(C)[C@@H](CO)Nc1ccc2ncc(-c3cccc(O)c3)n2n1 | 4.02
45 | COc1cccc(-c2cnn3ccc(Nc4cccc(Cl)c4)nc23)c1 | 4.61
46 | CC(C)[C@@H](CO)Nc1ccc2ncc(-c3cccc(OC(F)(F)F)c3)n2n1 | 4.02
47 | Nc1ccc(-c2cnn3ccc(Nc4cccc(Cl)c4)nc23)cc1 | 3.58

same assay, conditions: at 10 µM, protein 2 µM, buffer 50 mM HEPES, pH 7.5, NaCl 500 mM, hits give high values

Row | Compound | Tm shift [Celsius]
48 | O=c1cc(-c2ccc(O)c(O)c2)oc2cc(O)cc(O)c12 | 4.28
49 | O=c1c(O)c(-c2cc(O)c(O)c(O)c2)oc2cc(O)cc(O)c12 | 3.25
50 | CCN1/C(=C/C(C)=O)Sc2ccc(OC)cc21 | 3.16
51 | O=C1C(=O)C(c2cc(O)c(O)c(O)c2)Oc2cc(O)cc(O)c21 (stereo not drawn) | 3.08
52 | NCCCn1cc(C2=C(c3c[nH]c4ccccc34)C(=O)NC2=O)c2ccccc21 | 3.18
53 | O=c1c(O)c(-c2ccc(O)c(O)c2)oc2cc(O)cc(O)c12 | 3.12
